From ChEMBL document CHEMBL5303761, “Data for DCP probe BI-3231” (2023)

Columns and labels:
[1] = molecular target: GABA-A receptor; anion channel (Rattus norvegicus) (UniProt O09028+P15431+P18506+P18508+P19969+P20236+P23574+P23576+P28471+P28473+P30191+P62813+P63079+P63138+Q91ZM7+Q9ES14); experiment: BZD/CENTR/R Eurofins SafetyScreen44 (BI); assay type: protein-complex assay; conditions: Compound concentration 10.0 uM
[2] = molecular target: Sodium-dependent noradrenaline transporter (Homo sapiens) (UniProt P23975); experiment: NEUP/H Eurofins SafetyScreen44 (BI); conditions: Compound concentration 10.0 uM
[3] = molecular target: T1, 5-hydroxytryptamine receptor 1A (Homo sapiens) (UniProt P08908); conditions: Compound concentration 10.0 uM
T1 sequence (whole entry): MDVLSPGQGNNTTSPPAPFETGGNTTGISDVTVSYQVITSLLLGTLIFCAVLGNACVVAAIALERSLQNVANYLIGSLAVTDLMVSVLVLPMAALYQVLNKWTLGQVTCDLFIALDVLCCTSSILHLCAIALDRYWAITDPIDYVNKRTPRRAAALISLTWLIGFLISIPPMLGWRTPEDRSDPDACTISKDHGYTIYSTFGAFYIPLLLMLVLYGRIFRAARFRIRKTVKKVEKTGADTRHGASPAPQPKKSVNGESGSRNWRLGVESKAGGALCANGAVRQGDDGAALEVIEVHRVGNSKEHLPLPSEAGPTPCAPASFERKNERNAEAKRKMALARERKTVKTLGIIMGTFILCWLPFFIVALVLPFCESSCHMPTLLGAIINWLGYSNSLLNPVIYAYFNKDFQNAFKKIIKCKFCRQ

[4] = molecular target: 5-hydroxytryptamine receptor 2A (Homo sapiens) (UniProt P28223); conditions: Compound concentration 10.0 uM
Chain of 5-hydroxytryptamine receptor 2A (Homo sapiens) (P28223 whole entry): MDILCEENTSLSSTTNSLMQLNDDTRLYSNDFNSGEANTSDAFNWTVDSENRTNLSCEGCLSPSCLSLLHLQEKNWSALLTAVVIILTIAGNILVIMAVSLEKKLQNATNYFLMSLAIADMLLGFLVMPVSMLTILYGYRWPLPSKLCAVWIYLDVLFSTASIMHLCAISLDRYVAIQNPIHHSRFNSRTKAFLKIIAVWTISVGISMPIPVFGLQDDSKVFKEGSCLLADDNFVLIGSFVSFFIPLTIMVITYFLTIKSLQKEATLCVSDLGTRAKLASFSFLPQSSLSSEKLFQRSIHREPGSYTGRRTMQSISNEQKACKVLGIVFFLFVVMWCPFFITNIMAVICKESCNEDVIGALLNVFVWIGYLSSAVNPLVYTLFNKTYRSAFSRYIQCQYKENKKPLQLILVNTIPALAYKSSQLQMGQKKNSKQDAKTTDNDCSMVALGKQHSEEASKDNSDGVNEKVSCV

[5] = molecular target: 5-hydroxytryptamine receptor 2C (Homo sapiens) (UniProt P28335); conditions: Compound concentration 10.0 uM
Chain of 5-hydroxytryptamine receptor 2C (Homo sapiens) (P28335 whole entry): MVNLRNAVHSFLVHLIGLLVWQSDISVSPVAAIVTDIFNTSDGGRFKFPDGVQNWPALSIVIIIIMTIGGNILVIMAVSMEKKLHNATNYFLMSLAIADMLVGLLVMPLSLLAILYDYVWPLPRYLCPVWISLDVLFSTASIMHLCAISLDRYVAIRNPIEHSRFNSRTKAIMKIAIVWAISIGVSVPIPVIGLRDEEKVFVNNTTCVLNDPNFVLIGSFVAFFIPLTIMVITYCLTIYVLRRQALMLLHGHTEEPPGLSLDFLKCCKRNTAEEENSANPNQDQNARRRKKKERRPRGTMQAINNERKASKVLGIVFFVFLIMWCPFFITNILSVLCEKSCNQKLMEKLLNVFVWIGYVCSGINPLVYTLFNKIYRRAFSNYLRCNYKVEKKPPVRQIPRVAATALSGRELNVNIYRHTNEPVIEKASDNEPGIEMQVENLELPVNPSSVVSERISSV

[6] = molecular target: 5-hydroxytryptamine receptor 6 (Homo sapiens) (UniProt P50406); conditions: Compound concentration 10.0 uM
Chain of 5-hydroxytryptamine receptor 6 (Homo sapiens) (P50406 whole entry): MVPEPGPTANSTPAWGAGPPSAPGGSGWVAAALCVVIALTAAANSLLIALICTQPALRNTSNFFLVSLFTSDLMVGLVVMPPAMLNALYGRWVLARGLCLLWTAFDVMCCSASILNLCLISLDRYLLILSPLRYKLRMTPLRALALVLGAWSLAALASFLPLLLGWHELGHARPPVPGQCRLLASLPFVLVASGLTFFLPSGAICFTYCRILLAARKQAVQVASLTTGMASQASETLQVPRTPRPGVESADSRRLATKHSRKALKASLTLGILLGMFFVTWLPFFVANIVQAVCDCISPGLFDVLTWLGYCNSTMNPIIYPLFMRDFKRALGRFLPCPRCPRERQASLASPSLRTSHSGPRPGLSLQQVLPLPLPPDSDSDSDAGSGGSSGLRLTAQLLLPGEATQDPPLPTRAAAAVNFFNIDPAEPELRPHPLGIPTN

[7] = molecular target: 5-hydroxytryptamine receptor 7 (Homo sapiens) (UniProt P34969); conditions: Compound concentration 10.0 uM
Chain of 5-hydroxytryptamine receptor 7 (Homo sapiens) (P34969 whole entry): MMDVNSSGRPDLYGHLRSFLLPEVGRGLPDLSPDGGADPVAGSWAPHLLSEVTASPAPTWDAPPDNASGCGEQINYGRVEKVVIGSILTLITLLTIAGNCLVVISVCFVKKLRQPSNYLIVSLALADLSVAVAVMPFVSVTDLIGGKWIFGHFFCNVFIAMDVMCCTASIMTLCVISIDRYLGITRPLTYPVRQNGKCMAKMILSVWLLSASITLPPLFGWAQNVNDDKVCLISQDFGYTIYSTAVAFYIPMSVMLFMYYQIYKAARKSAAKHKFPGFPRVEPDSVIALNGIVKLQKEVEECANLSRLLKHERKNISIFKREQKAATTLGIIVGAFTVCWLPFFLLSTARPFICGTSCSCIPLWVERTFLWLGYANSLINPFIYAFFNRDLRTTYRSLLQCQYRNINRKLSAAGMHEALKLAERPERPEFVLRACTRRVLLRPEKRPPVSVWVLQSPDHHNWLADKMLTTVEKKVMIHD

[8] = molecular target: D(1A) dopamine receptor (Homo sapiens) (UniProt P21728); conditions: Compound concentration 10.0 uM
Chain of D(1A) dopamine receptor (Homo sapiens) (P21728 whole entry): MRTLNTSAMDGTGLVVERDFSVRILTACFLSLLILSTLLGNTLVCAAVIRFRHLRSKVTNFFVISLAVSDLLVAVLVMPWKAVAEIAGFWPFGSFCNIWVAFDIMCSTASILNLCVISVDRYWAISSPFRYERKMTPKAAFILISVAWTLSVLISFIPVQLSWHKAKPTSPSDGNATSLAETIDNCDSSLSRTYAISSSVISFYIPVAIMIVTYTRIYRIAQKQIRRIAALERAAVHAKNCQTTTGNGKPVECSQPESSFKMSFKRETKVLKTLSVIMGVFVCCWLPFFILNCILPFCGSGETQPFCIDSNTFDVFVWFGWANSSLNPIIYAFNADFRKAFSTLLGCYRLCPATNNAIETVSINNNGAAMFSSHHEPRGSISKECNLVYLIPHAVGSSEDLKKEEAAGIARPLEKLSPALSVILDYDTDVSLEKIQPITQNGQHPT

[9] = molecular target: D(2) dopamine receptor (Homo sapiens) (UniProt P14416); conditions: Compound concentration 10.0 uM
Chain of D(2) dopamine receptor (Homo sapiens) (P14416 whole entry): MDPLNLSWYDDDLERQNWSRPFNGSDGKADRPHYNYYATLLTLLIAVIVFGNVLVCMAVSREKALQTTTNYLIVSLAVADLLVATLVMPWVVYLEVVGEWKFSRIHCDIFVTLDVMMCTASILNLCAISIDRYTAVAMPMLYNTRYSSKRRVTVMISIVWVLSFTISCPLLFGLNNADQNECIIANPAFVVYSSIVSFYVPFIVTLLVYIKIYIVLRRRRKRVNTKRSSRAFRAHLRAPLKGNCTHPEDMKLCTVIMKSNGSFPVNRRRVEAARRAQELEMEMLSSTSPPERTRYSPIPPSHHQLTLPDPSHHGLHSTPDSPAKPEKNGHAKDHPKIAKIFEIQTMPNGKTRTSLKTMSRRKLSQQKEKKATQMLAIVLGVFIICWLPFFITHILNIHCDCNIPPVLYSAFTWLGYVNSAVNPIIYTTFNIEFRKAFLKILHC

[10] = molecular target: Alpha-2B adrenergic receptor (Homo sapiens) (UniProt P18089); conditions: Compound concentration 10.0 uM
Chain of Alpha-2B adrenergic receptor (Homo sapiens) (P18089 whole entry): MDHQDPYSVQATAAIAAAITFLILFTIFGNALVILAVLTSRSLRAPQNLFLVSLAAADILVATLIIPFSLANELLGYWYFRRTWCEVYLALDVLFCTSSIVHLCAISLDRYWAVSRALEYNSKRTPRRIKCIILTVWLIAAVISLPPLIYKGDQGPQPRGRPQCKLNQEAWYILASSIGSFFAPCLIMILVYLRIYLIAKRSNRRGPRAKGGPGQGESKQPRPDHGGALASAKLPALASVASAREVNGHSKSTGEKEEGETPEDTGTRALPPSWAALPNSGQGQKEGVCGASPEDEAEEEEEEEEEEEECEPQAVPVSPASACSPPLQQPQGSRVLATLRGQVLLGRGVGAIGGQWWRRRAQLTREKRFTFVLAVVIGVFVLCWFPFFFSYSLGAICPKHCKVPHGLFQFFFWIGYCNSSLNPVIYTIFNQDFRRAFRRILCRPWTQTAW

[11] = molecular target: T2, Muscarinic acetylcholine receptor M1 (Homo sapiens) (UniProt P11229); conditions: Compound concentration 10.0 uM
T2 sequence (whole entry): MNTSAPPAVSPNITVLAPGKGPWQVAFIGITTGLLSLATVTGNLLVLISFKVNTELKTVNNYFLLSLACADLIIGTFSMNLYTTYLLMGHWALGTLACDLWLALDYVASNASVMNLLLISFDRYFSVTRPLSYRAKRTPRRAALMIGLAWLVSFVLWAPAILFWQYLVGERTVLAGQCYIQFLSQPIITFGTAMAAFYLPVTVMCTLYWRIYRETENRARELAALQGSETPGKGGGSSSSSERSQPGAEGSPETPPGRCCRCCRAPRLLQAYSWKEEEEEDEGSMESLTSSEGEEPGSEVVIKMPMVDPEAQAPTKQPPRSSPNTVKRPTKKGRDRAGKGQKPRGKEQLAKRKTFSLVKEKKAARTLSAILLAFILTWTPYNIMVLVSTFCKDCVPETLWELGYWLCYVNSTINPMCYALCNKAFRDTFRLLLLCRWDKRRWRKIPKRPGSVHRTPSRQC

[12] = molecular target: Beta-3 adrenergic receptor (Homo sapiens) (UniProt P13945); conditions: Compound concentration 10.0 uM
Chain of Beta-3 adrenergic receptor (Homo sapiens) (P13945 whole entry, looked up): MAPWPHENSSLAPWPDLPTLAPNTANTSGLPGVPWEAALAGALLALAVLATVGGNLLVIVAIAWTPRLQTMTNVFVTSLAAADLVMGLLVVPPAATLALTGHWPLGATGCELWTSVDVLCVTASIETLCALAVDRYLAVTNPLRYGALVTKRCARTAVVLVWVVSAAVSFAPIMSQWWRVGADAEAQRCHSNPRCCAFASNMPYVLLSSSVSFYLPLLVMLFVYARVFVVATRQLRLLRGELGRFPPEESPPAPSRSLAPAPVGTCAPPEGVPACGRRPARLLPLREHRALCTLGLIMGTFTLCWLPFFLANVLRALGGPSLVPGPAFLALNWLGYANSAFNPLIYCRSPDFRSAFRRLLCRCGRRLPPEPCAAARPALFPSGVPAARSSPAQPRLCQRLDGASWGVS

[13] = molecular target: 17-beta-hydroxysteroid dehydrogenase 13 (Mus musculus, UniProt Q8VCR2); experiment: Enzymatic assay (mHSD17B13); assay type: functional
[14] = molecular target: Estradiol 17-beta-dehydrogenase 11 (Homo sapiens, UniProt Q8NBQ5); experiment: Enzymatic assay (hHSD17B11); assay type: functional
Chain of Estradiol 17-beta-dehydrogenase 11 (Q8NBQ5 whole entry): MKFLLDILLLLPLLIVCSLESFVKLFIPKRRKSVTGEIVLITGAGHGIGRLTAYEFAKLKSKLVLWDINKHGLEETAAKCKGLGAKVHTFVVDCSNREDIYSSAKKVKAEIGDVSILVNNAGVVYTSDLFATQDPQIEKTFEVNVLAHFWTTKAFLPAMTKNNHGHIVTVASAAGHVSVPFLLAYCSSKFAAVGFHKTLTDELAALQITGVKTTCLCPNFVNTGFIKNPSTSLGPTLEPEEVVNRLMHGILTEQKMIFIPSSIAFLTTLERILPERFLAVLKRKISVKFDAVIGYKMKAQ

hERG (KCNH2) = hERG (KCNH2) (Homo sapiens, UniProt Q12809); experiment: HERG_DOFETILIDE Eurofins SafetyScreen44 (BI); conditions: probe [3H]dofetilide, compound concentration 10 uM, read-out: % Ctrl
MAO-A = MAO-A (Rattus norvegicus, UniProt P21396); experiment: MAO-A_ANTAG Eurofins SafetyScreen44 (BI); design: scale not given: the % may be the effect or the level left; conditions: compound concentration 10 uM, read-out: % Ctrl
[15] = molecular target: Kappa-type opioid receptor (Homo sapiens) (UniProt P41145); conditions: Compound concentration 10.0 uM
Chain of Kappa-type opioid receptor (Homo sapiens) (P41145 whole entry): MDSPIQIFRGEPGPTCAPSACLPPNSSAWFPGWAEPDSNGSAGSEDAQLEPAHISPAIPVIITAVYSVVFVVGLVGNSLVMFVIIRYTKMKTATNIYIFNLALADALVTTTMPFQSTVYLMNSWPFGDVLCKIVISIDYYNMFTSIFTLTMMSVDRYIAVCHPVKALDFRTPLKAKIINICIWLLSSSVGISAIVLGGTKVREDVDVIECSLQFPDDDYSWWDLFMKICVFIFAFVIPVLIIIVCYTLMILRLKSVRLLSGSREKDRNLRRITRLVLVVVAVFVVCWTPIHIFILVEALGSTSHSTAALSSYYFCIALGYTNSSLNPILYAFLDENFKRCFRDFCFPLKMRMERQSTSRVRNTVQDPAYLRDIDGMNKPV

[16] = molecular target: Beta-1 adrenergic receptor (Homo sapiens) (UniProt P08588); conditions: Compound concentration 10.0 uM
Chain of Beta-1 adrenergic receptor (Homo sapiens) (P08588 whole entry, looked up): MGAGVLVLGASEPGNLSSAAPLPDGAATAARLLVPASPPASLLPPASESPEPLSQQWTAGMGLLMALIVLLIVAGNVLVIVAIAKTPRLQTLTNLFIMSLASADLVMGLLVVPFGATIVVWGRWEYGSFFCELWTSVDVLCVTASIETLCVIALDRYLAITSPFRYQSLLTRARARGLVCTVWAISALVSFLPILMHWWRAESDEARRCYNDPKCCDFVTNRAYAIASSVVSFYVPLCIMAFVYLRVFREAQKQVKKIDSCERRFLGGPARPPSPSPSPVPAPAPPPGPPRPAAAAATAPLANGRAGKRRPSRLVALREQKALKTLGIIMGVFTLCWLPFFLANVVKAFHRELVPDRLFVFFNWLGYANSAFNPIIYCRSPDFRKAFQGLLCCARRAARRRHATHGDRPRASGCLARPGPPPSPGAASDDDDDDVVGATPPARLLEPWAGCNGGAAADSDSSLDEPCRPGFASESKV

[17] = molecular target: Beta-2 adrenergic receptor (Homo sapiens) (UniProt P07550); conditions: Compound concentration 10.0 uM
[18] = molecular target: Sigma intracellular receptor 2 (Homo sapiens) (UniProt Q5BJF2); conditions: Compound concentration 10.0 uM
Chain of Sigma intracellular receptor 2 (Homo sapiens) (Q5BJF2 whole entry): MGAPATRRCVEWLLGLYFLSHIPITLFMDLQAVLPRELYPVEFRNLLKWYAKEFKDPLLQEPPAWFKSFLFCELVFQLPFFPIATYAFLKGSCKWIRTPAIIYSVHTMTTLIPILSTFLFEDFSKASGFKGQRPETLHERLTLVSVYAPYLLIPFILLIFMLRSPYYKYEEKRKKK

`CCn1c(=O)c(C)cn(Cc2nnc(-c3ccc(F)c(O)c3F)s2)c1=O` gave a residual activity [1] of 115%, a residual activity [2] of 88% and an inhibition [3] of 29.3%. It also gave an inhibition [4] of 0.32%, an inhibition [5] of -2.92% and an inhibition [6] of 0.69%. It also gave an inhibition [7] of 5.8%, an inhibition [8] of -6.39% and an inhibition [9] of -2.66%. For the same compound, the inhibition [10] was 5.03%, the inhibition [11] was 5.93% and the inhibition [12] was -4.71%.
In the case of `CCn1c(=O)c(C)cn(Cc2nnc(-c3ccc(F)c(OC)c3F)s2)c1=O`, the Ki [13] is reported as > 10 µM (not active), the IC50 [14] is reported as > 10 µM (not active) and the residual activity [1] is reported as 94%. The residual activity [2] was 92%, the activity at 10 µM (hERG (KCNH2)) was 100% (not active) and the activity at 10 µM (MAO-A) was 88% (not active). The inhibition [4] was 3.82%, the inhibition [7] was -1.29% and the inhibition [15] was 11.7%. The inhibition [10] was 2.49%, the inhibition [16] was -1.07% and the inhibition [17] was 6.43%. For the same compound, the inhibition [12] was 6.74% and the inhibition [18] was -5.43%.
